Patent US6077525A, “Use of conjugated linoleic acids” (The George Washington University, priority 1998, dated 2000)
Where two headings read alike, the source gives them in different places.

Legend:
[1] = tested on: human platelet thromboxane production (cyclooxygenase pathway); test: Human platelet thromboxane (TXB2) formation from [14C]-arachidonic acid, TLC; assay type: cell-based; details: for TXB2 formation (FIG. 2): CLA mix 3 and 10 μM, 9,11-18:2 30 and 60 μM, 10,12-18:2 3 and 10 μM, with ionophore A23187; for inhibitory effectiveness on platelet TXB2 formation, CLA mix and pure isomers compared: CLA mix vs pure 9,11- and 10,12-18:2; for IC50: Platelet, read-out: Inhibitory Potency (I50); for potency as thromboxane inhibitor relative to non-hydroxylated parent: 13-HODE vs 9,11-18:2
Experimental: (§1) Human platelets were isolated from donors according to previously established procedures (13) and resuspended in Krebs-Henseleit buffer (pH 7.4) at a concentration of 3×10^8 platelets/ml. The platelets (0.5 ml) were placed in a 37° C. water bath for several minutes and then treated with either vehicle (ethanol) or various concentrations of the fatty acid to be tested for 2 min. Next, 10 μM (final concentration) [^14 C]-arachidonic acid was added. In some experiments, 20 μM calcium ionophore A23187 was added about 5 sec. prior to the addition of the arachidonic acid substrate. Ten minutes after the addition of arachidonic acid, the reaction was terminated with 10% formic acid and the products extracted with chloroform-methanol. Product separation and analysis by thin layer chromatography (TLC) was carried out as previously described using unlabeled arachidonic acid, 15-HETE and thromboxane B2 as standards (11). The various radioactive product and unreacted substrate bands were visualized by autoradiography and quantitated either by scraping the bands from the TLC plate and counting the samples in a liquid scintillation counter or by determining the relative band intensities using a Personal Densitometer SI (Molecular Dynamics, Sunnyvale, Calif.) with ImageQuaNT v4.2 software).
To obtain the results shown in FIG. 2, the human platelets were pretreated with the various concentrations of CLA isomers followed by the addition of calcium ionophore A23187 and [^14 C]-arachidonic acid. Products were isolated, separated by thin layer chromatography as described above. […] The identities of the bands in decreasing order of Rf are as follows: AA-unreacted arachidonic acid, 12-HETE-12-hydroxyeicosatetraenoic acid (a platelet 12-lipoxygenase metabolite), HHT-12-hydroxyheptadecatrienoic acid, TXB2 -thromboxane B2, the latter two products are cyclooxygenase metabolites, origin-sample application point.
The data shown were obtained by determining the effects of various concentrations of CLA isomers on platelet thromboxane B2 production. […] [^14 C]-thromboxane B2 production by fatty acid-treated platelets relative to vehicle-treated platelets was determined and expressed as % control. Symbols used for various fatty acids: ΔΔ, CLA mix .box-solid.-.box-solid., 10,12-18:2, .smallcircle.-.smallcircle., 9,11-18:2, *-*, 13-HODE, .gradient.-.gradient., 9-HODE.

[2] = tested on: 12-lipoxygenase (human platelet 12-HETE formation); test: Human platelet 12-HETE formation from [14C]-arachidonic acid, TLC; assay type: cell-based; details: CLA mix 3 and 10 μM; 9,11-18:2 30 and 60 μM; 10,12-18:2 3 and 10 μM; with ionophore A23187
Experimental: as §1, with “Ten minutes after the addition of arachidonic acid, the reaction was terminated with 10% formic acid and the products extracted with chloroform-methanol.” left out, “software). To obtain the results shown in FIG. 2, the human platelets were pretreated with the various concentrations of CLA isomers followed by the addition of calcium ionophore A23187 and [^14 C]-arachidonic acid. […]” for “software).”

[3] = human platelets, exogenous arachidonic acid, calcium ionophore A23187, mean ± S.E.M., 6-11 donors

CCCCC/C=C\C=C\CCCCCCCCC(=O)O [10,12-18:2, 10,12-octadecadienoic acid]
TXB2 formation (FIG. 2) [1]: TXB2 was inhibited
inhibitory effectiveness on platelet TXB2 formation, CLA mix and pure isomers compared [1]: approximately the same
IC50 [1, 3]: 13 ± 4.1 µM
12-HETE production (FIG. 2) [2]: no effect on the 12-HETE production

CCCCCC/C=C/C=C\CCCCCCCC(=O)O [9,11-18:2, 9,11-octadecadienoic acid]
TXB2 formation (FIG. 2) [1]: TXB2 was inhibited
inhibitory effectiveness on platelet TXB2 formation, CLA mix and pure isomers compared [1]: approximately the same
IC50 [1, 3]: 16 ± 1.8 µM
12-HETE production (FIG. 2) [2]: no effect on the 12-HETE production

CCCCC/C=C\C=C\C(O)CCCCCCCC(=O)O (stereo not drawn) [9-HODE]
decrease of inhibitory effectiveness relative to 10,12-18:2 ([1]; 9-HODE vs 10,12-18:2): more than two
potency as thromboxane inhibitor relative to non-hydroxylated parent ([1]; 9-HODE vs 10,12-18:2): less potent than the corresponding non-hydroxylated parent 10,12-18:2
IC50 [1, 3]: 34 ± 6.5 µM

CCCCCCCC/C=C\CCCCCCCC(=O)O [Oleic acid]
IC50 ([1]; Homo sapiens): > 60 µM

CCCCC[C@H](O)/C=C/C=C\CCCCCCCC(=O)O [13-HODE]
potency as thromboxane inhibitor relative to non-hydroxylated parent ([1]; 9-HODE vs 10,12-18:2): more potent as a thromboxane inhibitor than the parent 9,11-18:2
enhancement of inhibitory potency relative to the non-hydroxylated analog ([1]; 13-HODE vs 9,11 isomer): about five
IC50 [1, 3]: 3 ± 0.7 µM
